Assay results taken from patent US20240417405A1, “Substituted Spiro Derivatives” (Janssen Pharmaceutica NV, priority 2021, published 2024).

What was measured:
[1] = test system: KO-52 cells; test: Proliferation assay, spheroid-like growth, KO-52 (MLL wildtype control cell line); format: cell-based, human; conditions: Homo sapiens, 192 h, KO-52 control cells, 8 days, confluence as measure of spheroid size; read-out: spheroid assay_OneTime KO-52 IC50
Outline: (§1)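 Cells seeded in ultra-low attachment round-bottom wells (200 MOLM14 or 300 KO-52 per well) with compound at several concentrations, DMSO 0.3%, grown 8 days at 37° C, 5% CO2. Spheroid size taken as confluence from day-8 live-cell images; IC50 from variable-slope fit, DMSO as 0% and high-dose reference compound as 100% effect.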

[2] = test system: MOLM14 cells; test: Proliferation assay, spheroid-like growth, MOLM14 (MLL-AF9 rearranged); format: cell-based, human; conditions: Homo sapiens, MOLM-14, 192 h, 8 days, confluence as measure of spheroid size, read-out: spheroid assay_OneTime MOLM14 IC50
Outline: as §1

[3] = molecular target: T1, menin/MLL (terbium chelate-labeled menin, FITC-MBM1 peptide) (Homo sapiens, UniProt O00255, T541A); test: Menin/MLL homogenous time-resolved fluorescence (HTRF) assay; format: binding; conditions: 30 min incubation
T1 construct: Menin (a.a 1-610-6xhis tag)
T1 sequence (O00255 with tags, fused parts or gaps T541A): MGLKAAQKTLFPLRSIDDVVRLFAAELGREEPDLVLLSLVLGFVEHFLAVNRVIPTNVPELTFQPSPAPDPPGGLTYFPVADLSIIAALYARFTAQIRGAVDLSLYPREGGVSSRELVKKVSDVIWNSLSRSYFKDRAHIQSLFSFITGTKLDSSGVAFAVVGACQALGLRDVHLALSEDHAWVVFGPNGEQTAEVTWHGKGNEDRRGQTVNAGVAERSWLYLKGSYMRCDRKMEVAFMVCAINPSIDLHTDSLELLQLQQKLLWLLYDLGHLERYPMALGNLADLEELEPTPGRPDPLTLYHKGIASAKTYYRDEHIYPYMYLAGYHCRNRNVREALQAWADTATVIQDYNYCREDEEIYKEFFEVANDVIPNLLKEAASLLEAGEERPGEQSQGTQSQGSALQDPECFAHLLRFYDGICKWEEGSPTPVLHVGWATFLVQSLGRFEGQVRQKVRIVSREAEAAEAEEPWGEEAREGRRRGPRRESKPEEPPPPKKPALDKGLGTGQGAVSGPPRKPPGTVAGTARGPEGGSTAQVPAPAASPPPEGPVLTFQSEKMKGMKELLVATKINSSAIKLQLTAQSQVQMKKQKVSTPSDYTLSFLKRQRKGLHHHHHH
Outline: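 Terbium-labeled menin (aa 1-610, His-tagged; 200 pM) preincubated 30 min with compound, then 75 nM FITC-MBM1 peptide added for 15 min at ambient temperature in pH 7.5 Tris buffer, 0.5% DMSO. HTRF ratio 520/490 nm converted to % inhibition. IC50 came from an 11-point four-fold titration from 10 μM, floor 0.1 nM.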

Structure (SMILES)	IC50 [1] [nM]	IC50 [2] [nM]	IC50 [3] [nM]
CC(C)[C@H]([C@H]1C[C@@H](N2CC3(COC3)C2)C1)N1CC2(CCN(c3ncnnc3Oc3ccc(F)cc3-c3ncc(C#N)cc3C3CC3)C2)C1 (single isomer, unassigned) [Compound 94]	3390	25	0.1
CC(C)[C@H]([C@H]1C[C@H](N2CC3(COC3)C2)C1)N1CC2(CCN(c3ncnnc3Oc3ccc(F)cc3-c3ncc(C#N)cc3C3CC3)C2)C1 (single isomer, unassigned) [Compound 95]	11400	210	0.1
CC(=O)N1CCN([C@H]2C[C@@H]([C@H](C(C)C)N3CC4(CCN(c5ncnnc5Oc5ccc(F)cc5-c5ncc(C#N)cc5C5CC5)C4)C3)C2)CC1 (single isomer, unassigned) [Compound 96]	> 15000	> 940	153
CC(C)[C@@H]([C@H]1C[C@@H](N2C[C@H]3COC[C@H]3C2)C1)N1CC2(CCN(c3ncnnc3Oc3ccc(F)cc3-c3ncncc3C3CC3)C2)C1 (single isomer, unassigned) [Compound 97]	310	3	0.1
CC(C)[C@@H]([C@H]1C[C@@H](N2CCC(S(C)(=O)=O)CC2)C1)N1CC2(CCN(c3ncnnc3Oc3ccc(F)cc3-c3ncncc3C3CC3)C2)C1 (single isomer, unassigned) [Compound 98]	4350	58	0.4
CC(C)[C@@H]([C@H]1C[C@@H](N2CC[C@](C)(O)C2)C1)N1CC2(CCN(c3ncnnc3Oc3ccc(F)cc3-c3ncncc3C3CC3)C2)C1 (single isomer, unassigned) [Compound 99]	2000	2	0.1
CC(C)[C@@H]([C@H]1C[C@@H](N2CCC(C(=O)N(C)C)CC2)C1)N1CC2(CCN(c3ncnnc3Oc3ccc(F)cc3-c3ncncc3C3CC3)C2)C1 (single isomer, unassigned) [Compound 100]	9810	33	0.1
CC(C)[C@@H]([C@H]1C[C@@H](N2CC3(CCO3)C2)C1)N1CC2(CCN(c3ncnnc3Oc3ccc(F)cc3-c3ncncc3C3CC3)C2)C1 (single isomer, unassigned) [Compound 101]	1070	10	0.1
CC(C)[C@@H]([C@H]1C[C@@H](N2CC3(CCO3)C2)C1)N1CC2(CCN(c3ncnnc3Oc3ccc(F)cc3-c3cnncc3C3CC3)C2)C1 (single isomer, unassigned) [Compound 102]	8470	12	0.1
CC(C)[C@@H]([C@H]1C[C@H](N2CC3(CCO3)C2)C1)N1CC2(CCN(c3ncnnc3Oc3ccc(F)cc3-c3cnncc3C3CC3)C2)C1 (single isomer, unassigned) [Compound 103]	12200	100	0.1
CC(=O)N1CCN([C@H]2C[C@@H]([C@H](C(C)C)N3CC4(CCN(c5ncnnc5Oc5ccc(F)cc5-c5cnncc5C5CC5)C4)C3)C2)CC1 (single isomer, unassigned) [Compound 104]	11800	73	0.2
CC(C)[C@@H]([C@H]1C[C@@H](N2CC3(COC3)C2)C1)N1CC2(CCN(c3ncnnc3Oc3ccc(F)cc3-c3cnncc3C3CC3)C2)C1 (single isomer, unassigned) [Compound 106]	4990	11	0.1
CC(C)[C@@H]([C@H]1C[C@H](N2CC3(COC3)C2)C1)N1CC2(CCN(c3ncnnc3Oc3ccc(F)cc3-c3cnncc3C3CC3)C2)C1 (single isomer, unassigned) [Compound 107]	> 15000	76	0.1
CO[C@H]1CCN([C@H]2C[C@@H]([C@H](C(C)C)N3CC4(CCN(c5ncnnc5Oc5ccc(F)cc5-c5cnncc5C5CC5)C4)C3)C2)C1 (single isomer, unassigned) [Compound 108]	2650	1	0.2
CO[C@H]1CCN([C@H]2C[C@H]([C@H](C(C)C)N3CC4(CCN(c5ncnnc5Oc5ccc(F)cc5-c5cnncc5C5CC5)C4)C3)C2)C1 (single isomer, unassigned) [Compound 109]	> 15000	53	0.1
CC(C)[C@@H]([C@H]1C[C@@H](N2CC[C@@H](C(=O)N(C)C)C2)C1)N1CC2(CCN(c3ncnnc3Oc3ccc(F)cc3-c3cnncc3C3CC3)C2)C1 (single isomer, unassigned) [Compound 110]	6840	12	0.1
CC(C)[C@@H]([C@H]1C[C@H](N2CC[C@@H](C(=O)N(C)C)C2)C1)N1CC2(CCN(c3ncnnc3Oc3ccc(F)cc3-c3cnncc3C3CC3)C2)C1 (single isomer, unassigned) [Compound 111]	> 15000	120	0.2
CC(C)[C@@H]([C@H]1C[C@@H](N2CC[C@](C)(O)C2)C1)N1CC2(CCN(c3ncnnc3Oc3ccc(F)cc3-c3cnncc3C3CC3)C2)C1 (single isomer, unassigned) [Compound 112]	10100	6	0.1
CC(C)[C@@H]([C@H]1C[C@H](N2CC[C@](C)(O)C2)C1)N1CC2(CCN(c3ncnnc3Oc3ccc(F)cc3-c3cnncc3C3CC3)C2)C1 (single isomer, unassigned) [Compound 113]	> 15000	200	0.2
CC(C)[C@@H]([C@H]1C[C@@H](N2CC[C@@](C)(O)C2)C1)N1CC2(CCN(c3ncnnc3Oc3ccc(F)cc3-c3cnncc3C3CC3)C2)C1 (single isomer, unassigned) [Compound 114]	14200	8	0.1
CC(C)[C@@H]([C@H]1C[C@H](N2CC[C@@](C)(O)C2)C1)N1CC2(CCN(c3ncnnc3Oc3ccc(F)cc3-c3cnncc3C3CC3)C2)C1 (single isomer, unassigned) [Compound 115]	> 15000	430	0.2
CC(C)[C@@H]([C@H]1C[C@@H](N2CC[C@H](C(=O)N(C)C)C2)C1)N1CC2(CCN(c3ncnnc3Oc3ccc(F)cc3-c3cnncc3C3CC3)C2)C1 (single isomer, unassigned) [Compound 116]	8890	7	0.1
CC(C)[C@@H]([C@H]1C[C@H](N2CC[C@H](C(=O)N(C)C)C2)C1)N1CC2(CCN(c3ncnnc3Oc3ccc(F)cc3-c3cnncc3C3CC3)C2)C1 (single isomer, unassigned) [Compound 117]	> 15000	170	0.1
CC(C)[C@H]([C@H]1C[C@@H](N2CC3(CCO3)C2)C1)N1CC2(CCN(c3ncnnc3Oc3ccc(F)cc3-c3cncnc3C3CC3)C2)C1 (single isomer, unassigned) [Compound 145]	3580	6	0.2
CC(C)[C@H]([C@H]1C[C@H](N2CC3(CCO3)C2)C1)N1CC2(CCN(c3ncnnc3Oc3ccc(F)cc3-c3cncnc3C3CC3)C2)C1 (single isomer, unassigned) [Compound 146]	6600	160	0.2
CC(C)[C@H]([C@H]1C[C@@H](N(C)C)C1)N1CC2(CCN(c3ncnnc3Oc3ccc(F)cc3-c3ncccc3C3CC3)C2)C1 (single isomer, unassigned) [Compound 147]	390	4	0.1
CC(C)[C@H]([C@H]1C[C@@H](NC2CC2)C1)N1CC2(CCN(c3ncnnc3Oc3ccc(F)cc3-c3ncccc3C3CC3)C2)C1 (single isomer, unassigned) [Compound 148]	610	3	0.2
CC(C)[C@H]([C@H]1C[C@@H](N2C[C@H]3COC[C@H]3C2)C1)N1CC2(CCN(c3ncnnc3Oc3ccc(F)cc3-c3ncccc3C3CC3)C2)C1 (single isomer, unassigned) [Compound 149]	510	< 2	0.1
